Assay results from ChEMBL document CHEMBL1641512, “Lyconadins D and E, and complanadine E, new Lycopodium alkaloids from Lycopodium complanatum” (Bioorg Med Chem, 2011).
Activity calls are given as the source filed them. The calls are words filed in the database; no cut-off is given here.

Assays:
Assay type in all cases: cell-based
[1] = target: Beta-nerve growth factor (Homo sapiens) (UniProt P01138); assay: Induction of neurotrophic factor mRNA expression in human 1321N1 cells at 100 uM by RT-PCR analysis
[2] = target: Beta-nerve growth factor (Homo sapiens) (UniProt P01138); assay: Induction of neurotrophic factor mRNA expression in human 1321N1 cells at 100 uM by RT-PCR analysis relative to beta-actin mRNA expression
[3] = target: Beta-nerve growth factor (Homo sapiens) (UniProt P01138); assay: Induction of neurotrophic factor mRNA expression in human 1321N1 cells by RT-PCR analysis

Beta-nerve growth factor (Homo sapiens), sequence (P01138 122-241 limits assumed): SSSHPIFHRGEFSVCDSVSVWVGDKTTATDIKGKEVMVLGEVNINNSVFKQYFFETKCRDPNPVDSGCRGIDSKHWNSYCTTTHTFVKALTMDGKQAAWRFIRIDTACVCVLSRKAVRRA

| Structure (SMILES) | Activity [1] | fold change (FC) [2] | Activity [3] |
| --- | --- | --- | --- |
| C[C@@H]1CC2=C3NC(=O)CC[C@]34C[C@@]3(C1)NC[C@H]4C[C@@H]23 | inactive | – | – |
| C[C@@H]1C[C@H]2Cc3ncc(-c4ccc5c(n4)C(=O)[C@@H]4C[C@@H](C)C[C@]56NCCC[C@H]46)cc3[C@]3(C1)NCCC[C@H]23 | – | 2.3 | – |
| C[C@@H]1CC2=C3NC(=O)CC[C@]34C[C@]3(C1)[C@H]2C[C@@H]4CN3C | inactive | – | – |

Continued, values first:

| Activity [1] | fold change (FC) [2] | Activity [3] | Structure (SMILES) |
| --- | --- | --- | --- |
| – | 2.4 | – | C[C@@H]1C[C@H]2CC3=C(CC[C@H](c4cnc5c(c4)[C@@]46C[C@H](C)C[C@@H](C5)[C@H]4CCCN6)N3)[C@]3(C1)NCCC[C@H]23 |
| – | 2.8 | – | C[C@@H]1C[C@H]2C[C@H]3N[C@H](c4cnc5c(c4)[C@@]46C[C@H](C)C[C@@H](C5)[C@H]4CCCN6)CC[C@H]3[C@]3(C1)NCCC[C@H]23 |
| – | 3.9 | Dose-dependent effect | C[C@@H]1C[C@H]2Cc3ncc(-c4ccc5c(n4)C[C@@H]4C[C@@H](C)C[C@]56NCCC[C@H]46)cc3[C@]3(C1)NCCC[C@H]23 |
